Source: patent US9655909B2, “Personalized medicine for the prediction of therapy targeting the hedgehog pathway” (Board of Regents, The University of Texas System, priority 2012, dated 2017)

Assays:
[1] = system: CF-Pac-1 and AsPC-1 stable clones; test: MTT assay of PDAC Gli1 stable clones with GEM; type: cell-based
Description: FIGS. 19A-C. Gli1 is negatively correlated with sensitivity of pancreatic cancer cells to GEM. Gli1 knock-down sensitized the response of PDAC cells to gemcitabine (GEM), but overexpression of Gli1 protected PDAC cells from GEM. FIG. 19A. Western blot of Gli1 in stable clones of AsPC-1 and CF-Pac-1 cells with Gli1 knocked down or ectopic expression. FIG. 19B. MTT assay of CF-Pac-1 stable clones with GEM. FIG. 19C. MTT assay of AsPC-1 stable clones with GEM.
Knock-down of Gli1 in PDAC cells sensitized the cells to gemcitabine (GEM), and overexpression of Gli1 protected PDAC cells from GEM. The inventor's performed a western blot for Gli1 in stable clones of AsPC-1 and CF-Pac-1 cells with Gli1 knocked down or ectopically expressed (FIG. 19A). MTT assays were performed on CF-Pac-1 stable clones (FIG. 19B) and AsPC-1 stable clones (FIG. 19C) with GEM. Gli1 expression correlated negatively with sensitivity of pancreatic cancer cells to GEM.

[2] = system: Gli1; test: Gli1 nuclear accumulation (cell fractionation Western blot, immunofluorescence) in BE3 cells; type: cell-based, human; conditions: TNFα 5 ng/mL alone
Protocol: FIGS. 1A-1E. TNFα regulates Gli1 transcriptional activity. FIG. 1A. Luciferase assay for Gli transcriptional activity in esophageal adenocarcinoma (EAC) cell lines with or without TNFα (5 ng/mL) stimulation. The EAC cells were transfected using GliBS-Luciferase or mGliBS-Luciferase with CMV-Renilla at a 10:1 ratio, serum-starved overnight, and then treated with TNFα for 24 hr. GliBS is a Gli-responsive reporter, and mGliBS is a Gli-unresponsive reporter. Error bars represent SD (n=5). FIG. 1B. The mRNA levels of Gli1 target genes in the EAC cell lines with or without TNFα (5 ng/mL) stimulation were examined by real-time PCR and normalized to the mRNA level of ACTIN. Error bars represent SD (n=4). FIG. 1C. […] FIG. 1D. […] Then, the cells were lysed for cell fractionation followed by Western blotting. Lamin B and tubulin were used as markers for the nucleus and the cytoplasm, respectively. FIG. 1E. Immunofluorescent analysis of Gli1 in BE3 cells treated with TNFα (5 ng/mL) alone or co-treated with TNFα and rapamycin (50 nM) for the indicated time course. Scale bar=100 μm for original picture and 25 μm for inset. Dapi was used to stain nuclei.
Cellular fractionation was performed as described previously (Lin et al., 2001). Briefly, cells were lysed in the lysis buffer (20 mM HEPES, pH 7.0, 10 mM KCl, 2 mM MgCl2, 0.5% NP-40, 1 mM Na3VO4, 10 mM NaF, 1 mM PMSF, 2 μg/mL aprotinin). […]

[3] = system: Gli-dependent luciferase reporter; test: Gli-dependent luciferase reporter assay in EAC cell lines; type: cell-based, human
Protocol: Because Gli protein activity is a useful readout for the HH pathway (Jiang and Hui, 2008), the inventors employed a Gli-dependent luciferase reporter system (Sasaki et al., 1997) to evaluate the influence of TNFα on the HH pathway in three EAC cell lines, BE3, SKGT-4, and OE33 (Boonstra et al., 2010). […] Then, the inventors compared the activity of HH pathway in EAC cells stimulated by SHH or TNFα.
Cells were seeded in six-well plates and transfected with GliBS or mGliBS combined with CMV-Renilla vector as an internal standard. After overnight (12-16 hr) transfection, the cells were used for further experiments. After treatment, the cells were rinsed with PBS and subjected to luciferase assay using a dual-luciferase reporter assay system (Promega) based on the manufacturer's instruction.

[4] = system: EAC cell lines and BE3 Gli1 stable clones; test: IC50 evaluation for cyclopamine and GDC-0449 (cell growth); type: cell-based, human; conditions: for resistance of BE3/Gli1 under TNFα treatment: TNFα 5 ng/mL; for efficacy in the EAC cell lines with rapamycin treatment: rapamycin 10 nM pre-treatment
Protocol: FIGS. 7A-7G. […] FIG. 7A. The expression of activated SHH (SHH-N) in EAC cell lines and the cell culture medium. FIG. 7B. The mRNA levels of Gli1 target genes in EAC cell lines with or without SHH treatment (1 μg/mL). The mRNA levels of Gli1 target genes are normalized to ACTIN. Error bars represent SD (n=3). FIG. 7C. […] Error bars represent SD (n=4). FIG. 7D. […] Error bars represent SD (n=4). FIG. 7E. […] Error bars represent SD (n=4). FIG. 7F. […] Error bars represent SD (n=4). FIG. 7G. In vivo combination therapy for subcutaneously inoculated tumors from BE3 cells using GDC-0449 (50 mg/kg) or RAD001 (10 mg/kg). One million cells were subcutaneously injected into the right flank of nude mice and the tumor cells were allowed to grow for 10 days (the arrow) before initiation of drug treatment. The vehicle, GDC-0449, RAD001, or combination of GDC-0449 and RAD001 were orally administrated, qd. The tumor volume measured and calculated using the formula: l×w^2, where l is the longest diameter and w is the shortest diameter. Error bars represent SD (n=5).
The concentrations required to inhibit cell growth by 50% (IC50) were calculated from survival curves.

[5] = system: Gli1; test: Western blot of Gli1 in breast cancer cell lines; type: cell-based; conditions: for Gli1 protein levels: BT549 and Hs578t breast cancer cells
Protocol: FIG. 21. […] Western blot showing the effect of PF-4708671 on S6 phosphorylation, S6K1 phosphorylation, and Gli1 expression in the BT549 cell line. Tubulin was detected as a loading control. Lane labels indicate the micromolar concentration of PF-4708671 used.
FIG. 22. […] DMSO was used as a negative control.
A western blot was performed to show the effect of PF-4708671 on S6 phosphorylation, S6K1 phosphorylation, and Gli1 expression in the BT549 cell line (FIG. 21).

[6] = system: subcutaneously inoculated tumors from BE3 cells; test: In vivo combination therapy of subcutaneous BE3 tumors; set-up: species or system nude mice
Description: FIG. 7A. […] FIG. 7B. […] Error bars represent SD (n=3). FIG. 7C. […] FIG. 7G.

Nc1ccn([C@@H]2O[C@H](CO)[C@@H](O)C2(F)F)c(=O)n1 [gemcitabine]
response of PDAC cells with knock-down of Gli1 [1]: sensitized
response of PDAC cells with overexpression of Gli1 [1]: protected

TNFα
Gli1 nuclear accumulation [2]: rapidly induced Gli1 nuclear accumulation
activity of HH pathway in EAC cells ([3]; Gli reporter, stimulation by SHH or TNFα, FIG. 9A): increased the activity of HH pathway

CC1=C2C[C@H]3[C@@H](CC=C4C[C@@H](O)CC[C@@]43C)[C@@H]2CC[C@]12O[C@@H]1C[C@H](C)CN[C@H]1[C@H]2C [cyclopamine]
resistance of BE3/Gli1 under TNFα treatment [4]: increased the resistance
efficacy in the EAC cell lines with rapamycin treatment [4]: enhanced the efficacy

NC1(c2ccc(-c3nc4ccn5c(=O)[nH]nc5c4cc3-c3ccccc3)cc2)CCC1 [MK]
Gli1 protein levels [5]: decreased Gli1 protein levels

CO[C@H]1C[C@@H]2CC[C@@H](C)[C@@](O)(O2)C(=O)C(=O)N2CCCC[C@H]2C(=O)O[C@H]([C@H](C)C[C@@H]2CC[C@@H](OCCO)[C@H](OC)C2)CC(=O)[C@H](C)/C=C(\C)[C@@H](O)[C@@H](OC)C(=O)[C@H](C)C[C@H](C)/C=C/C=C/C=C/1C [RAD001, everolimus]
tumor-inhibitory effect of GDC-0449 when combined with RAD001 ([6]; GDC-0449 50 mg/kg and RAD001 10 mg/kg qd oral): enhanced the tumor-inhibitory effect
tumor growth ([6]; RAD001 10 mg/kg qd oral, alone, low dose): did not inhibit tumor growth
Gli1 protein levels [5]: decreased Gli1 protein levels

CS(=O)(=O)c1ccc(C(=O)Nc2ccc(Cl)c(-c3ccccn3)c2)c(Cl)c1 [GDC-0449]
EAC tumor size ([6]; GDC-0449 50 mg/kg qd oral, alone): decreased the EAC tumor size
IC50 value in BE3/S84E compared with BE3/EV, BE3/Gli1 and BE3/S84A ([4]; 48 hr, Gli1 stable clones): much higher
resistance of BE3/Gli1 under TNFα treatment [4]: increased the resistance
efficacy in the EAC cell lines with rapamycin treatment [4]: enhanced the efficacy
constitutive activation of HH pathway in EAC cell lines ([3]; Gli reporter, EAC cell lines, FIG. 9A): can be inhibited
mTOR/S6K1-mediated Gli1 activation ([3]; SMO inhibitors): had little effects

CCc1cncnc1N1CCN(Cc2nc3ccc(C(F)(F)F)cc3[nH]2)CC1 [PF-4708671]
Gli1 expression ([5]; BT549 cell line): decreased
